The source of these data is patent US10508105B2, “Indazole compounds as mGluR4 allosteric potentiators, compositions, and methods of treating neurological dysfunction” (Vanderbilt University, priority 2017, dated 2019).

In the test the target is human mGlu4 (Homo sapiens (Human), UniProt Q14833). The experiment in a line: mGlu4 PAM assay in human mGlu4/Gqi5 cells with ~EC20 glutamate (Hamamatsu FDSS). The following applies: ~EC20 concentration of glutamate, read-out: mGlu4 PAM EC50. It counts as cell-based. On the procedure: The disclosed compounds and compositions can be evaluated for their ability to act as a potentiatior of metabotropic glutamate receptor activity, in particular mGluR4 activity, by any suitable known methodology known in the art. For example, Chinese Hamster Ovary (CHO) cells transfected with human mGluR4 or HEK cells co-transfected with rat mGluR4 and the G-protein regulated Inwardly Rectifying Potassium channel (GIRK) were plated in clear bottom assay plates for assay in a Hamamatsu FDSS Fluorometric Plate Reader. The cells were loaded with either a Ca2+-sensitive fluorescent dye or the thallium responsive dye and the plates were washed and placed into a suitable kinetic plate reader. For human mGluR4 assays, a fluorescence baseline was established for 3-5 seconds, the disclosed compounds were then added to the cells, and the response in cells was measured. Approximately two and a half minutes later, a concentration of mGluR4 orthosteric agonist (e.g. glutamate, L-AP4, or L-SOP) eliciting approximately 20% (EC20) of the maximal agonist response was added to the cells, and the response was measured. Two minutes later, a concentration of mGluR4 agonist (e.g. glutamate, L-AP4, or L-SOP) eliciting 80% (EC80) of the maximal agonist response was added to the cells, and the response was measured. For rat mGluR4/GIRK experiments, a baseline was established for approximately five seconds, disclosed compounds were added, and either an EC20 or EC80 concentration of agonist was added approximately two and one half minutes later.
Chain of human mGlu4 (Q14833 33-912): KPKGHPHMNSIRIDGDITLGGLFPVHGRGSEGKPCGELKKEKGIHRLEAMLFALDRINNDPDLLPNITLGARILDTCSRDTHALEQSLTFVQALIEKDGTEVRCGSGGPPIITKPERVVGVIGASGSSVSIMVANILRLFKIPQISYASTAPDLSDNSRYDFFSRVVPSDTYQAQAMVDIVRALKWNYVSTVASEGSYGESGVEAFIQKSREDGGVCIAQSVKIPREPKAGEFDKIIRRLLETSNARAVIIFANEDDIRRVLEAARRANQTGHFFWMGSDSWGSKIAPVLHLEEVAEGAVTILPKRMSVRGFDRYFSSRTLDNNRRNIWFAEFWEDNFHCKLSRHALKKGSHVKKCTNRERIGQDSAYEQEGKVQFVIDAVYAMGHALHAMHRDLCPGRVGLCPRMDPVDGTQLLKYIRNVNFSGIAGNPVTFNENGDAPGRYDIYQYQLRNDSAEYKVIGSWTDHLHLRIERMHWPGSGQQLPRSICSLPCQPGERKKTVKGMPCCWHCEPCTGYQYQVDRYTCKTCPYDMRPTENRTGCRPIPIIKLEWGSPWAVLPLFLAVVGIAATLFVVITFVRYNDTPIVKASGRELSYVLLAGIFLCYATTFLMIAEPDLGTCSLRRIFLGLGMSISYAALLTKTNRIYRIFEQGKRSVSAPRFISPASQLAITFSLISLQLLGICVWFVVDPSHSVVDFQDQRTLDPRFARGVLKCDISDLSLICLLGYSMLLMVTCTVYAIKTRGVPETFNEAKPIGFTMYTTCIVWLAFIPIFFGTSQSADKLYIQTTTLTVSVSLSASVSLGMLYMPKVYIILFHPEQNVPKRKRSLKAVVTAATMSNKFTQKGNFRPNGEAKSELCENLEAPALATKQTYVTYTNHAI
The above described assay operated in two modes. In the first mode, a range of concentrations of the disclosed compounds are added to cells, followed by a single fixed concentration of agonist. If the compound acts as a potentiatior, an EC50 value for potentiation and a maximum extent of potentiation by the compound at this concentration of agonist is determined by non-linear curve fitting. If the compound acts as an antagonist, an IC50 value is determined by non-linear curve fitting. In the second mode, several fixed concentrations of the disclosed compounds are added to various wells on a plate, followed by a range in concentrations of agonist for each concentration of disclosed compound. The EC50 values for the agonist at each concentration of compound are determined by non-linear curve fitting. A decrease in the EC50 value of the agonist with increasing concentrations of the sample compound (a leftward shift of the agonist concentration-response curve) is an indication of the degree of mGluR4 potentiation at a given concentration of the sample compound. A decrease in the maximal response of the agonist with increasing concentrations of the sample compounds, with or without a rightward shift in agonist potency, is an indication of the degree of antagonism at mGluR4. The second mode also indicates whether the sample compounds also affect the maximum response to mGluR4 to agonists.
Consider `Cn1nc(OC2CCOC(C)(C)C2)c2ccc(NC(=O)c3ncccc3N)cc21` (stereo not drawn) [Compound 68], for which the EC50 came to 0.131 µM.
With `Cn1nc(OC2CCOC2)c2ccc(Nc3n[nH]c4cccnc34)cc21` (stereo not drawn) [Compound 28] the figure was 0.726 µM; with `Cn1nc(OCC2CCOC2)c2ncc(NC(=O)c3ncccc3N)cc21` (stereo not drawn) [Compound 56], 0.0868 µM; with `CC1CC(Oc2nn(C)c3cc(NC(=O)c4ncccc4O)ccc23)CCO1` (stereo not drawn) [Compound 75], 0.431 µM.
With `COCCCOc1nn(C)c2cc(Nc3n[nH]c4cccnc34)ccc12` [Compound 30] the figure was 0.172 µM; with `Cn1nc(OCC2CCOCC2)c2ccc(NC(=O)c3ncccc3N)cc21` [Compound 117], 0.0877 µM.
For the compound `Cn1nc(OCC2CCOCC2)c2ccc(Nc3n[nH]c4ncccc34)cc21` [Compound 52], the EC50 came out at 0.157 µM.
With `Cn1nc(Oc2ncccc2C#N)c2ccc(Nc3n[nH]c4cccnc34)cc21` [Compound 15], the EC50 was 0.184 µM.
To `Cn1nc(OCC2COC(C)(C)C2)c2ccc(NC(=O)c3ccccn3)cc21` (stereo not drawn) [Compound 101] belongs 0.0756 µM.
To `Cn1nc(OC2COC2)c2ccc(Nc3n[nH]c4cccnc34)cc21` [Compound 22] belongs 0.629 µM; to `Cn1nc(OCC2CCOC2)c2ccc(Nc3n[nH]c4ncccc34)cc21` (stereo not drawn) [Compound 50], 0.135 µM.
Regarding `Cn1nc(OCCOc2ccccc2F)c2ccc(Nc3n[nH]c4cccnc34)cc21` [Compound 19], the EC50 is 0.483 µM.
With `COc1nn(C)c2cc(Nc3n[nH]c4cccnc34)cc(Cl)c12` [Compound 26] the figure was 0.707 µM; with `Cn1nc(OCC2CCCOC2)c2ccc(NC(=O)c3ncccc3O)cc21` (stereo not drawn) [Compound 87], 0.1 µM; with `Cn1nc(OCC2CCOC2)c2ccc(Nc3n[nH]c4cccnc34)cc21` (stereo not drawn) [Compound 49], 0.0305 µM.
With `Cn1nc(OC2CCOC(C)(C)C2)c2ccc(Nc3n[nH]c4cccnc34)cc21` (stereo not drawn) [Compound 63] the figure was 0.169 µM; with `Cn1nc(OC2CC3CCC2O3)c2ccc(Nc3n[nH]c4ncccc34)cc21` (stereo not drawn) [Compound 38], 0.601 µM; with `CC1CC(COc2nn(C)c3cc(NC(=O)c4ccc(F)cn4)ccc23)CC(C)O1` (stereo not drawn) [Compound 109], 0.0836 µM.
Regarding `Cn1nc(O[C@H]2CCOC2)c2ccc(Nc3n[nH]c4cccnc34)cc21` [Compound 32], the half-maximal effective concentration (EC50) is 0.456 µM.
With `Cc1cc(COc2nn(C)c3cc(Nc4n[nH]c5cccnc45)ccc23)no1` [Compound 12], the concentration giving a half-maximal response (EC50) turned out to be 0.203 µM.
For the compound `Cn1nc(OCCN2CCOCC2)c2ccc(Nc3n[nH]c4cccnc34)cc21` [Compound 21], the half-maximal effective concentration (EC50) was 0.238 µM.
On to `Cn1nc(OCc2ccncc2)c2ccc(Nc3n[nH]c4cccnc34)cc21` [Compound 10], for which the EC50 worked out at 0.0657 µM.
Turning to `Cn1nc(OCCN2CCOCC2)c2c(Cl)cc(Nc3n[nH]c4cccnc34)cc21` [Compound 24], the EC50 came out at 0.322 µM.
To `Cn1nc(OCC2CCOC2)c2ncc(NC(=O)c3ccccn3)cc21` (stereo not drawn) [Compound 55] belongs 0.873 µM; to `Cn1nc(OCC2CCCOC2)c2ncc(NC(=O)c3ncccc3N)cc21` (stereo not drawn) [Compound 89], 0.181 µM; to `Cn1nc(OCC2CCOC2)c2ccc(NC(=O)c3ccccn3)cc21` (stereo not drawn) [Compound 114], 0.0812 µM.
As for `Cn1nc(OCCN2CCOCC2)c2ccc(NC(=O)c3ccccn3)cc21` [Compound 76], the EC50 was 0.703 µM.
`Cn1nc(OC2CCS(=O)(=O)CC2)c2ccc(NC(=O)c3ccccn3)cc21` [Compound 39]: the EC50 amounted to 0.417 µM.
Turning to `Cn1nc(OC2CCS(=O)(=O)CC2)c2ccc(Nc3n[nH]c4ncccc34)cc21` [Compound 48], the EC50 was 0.335 µM.
To `Cn1nc(OC[C@H]2CCOC2)c2ncc(NC(=O)c3ncccc3N)cc21` [Compound 84] belongs 0.166 µM; to `Cn1nc(OC2CCOCC2F)c2ccc(Nc3n[nH]c4cccnc34)cc21` (stereo not drawn) [Compound 64], 0.089 µM.
On to `Cn1nc(OCC2COC2)c2ccc(Nc3n[nH]c4cccnc34)cc21` [Compound 27], for which the EC50 amounted to 0.0964 µM.
With `Cn1nc(Oc2ccc(C#N)cn2)c2c(Cl)cc(Nc3n[nH]c4cccnc34)cc21` [Compound 25] the figure was 0.482 µM.
`Cn1nc(OC2CCS(=O)(=O)C2)c2ccc(NC(=O)c3ccccn3)cc21` (stereo not drawn) [Compound 53]: the concentration giving a half-maximal response (EC50) came out at 0.272 µM.
On to `Cn1nc(OCC2CCOC2)c2ccc(NC(=O)c3nccnc3N)cc21` (stereo not drawn) [Compound 92], for which the EC50 turned out to be 0.115 µM.
For the compound `Cn1nc(OCC2CCOC2)c2ccc(NC(=O)c3ncc(F)cc3F)cc21` (stereo not drawn) [Compound 100], the EC50 was 0.801 µM.
With `Cn1nc(OC2CCOC(C)(C)C2)c2ccc(NC(=O)c3ncccc3O)cc21` (stereo not drawn) [Compound 69], the EC50 worked out at 0.117 µM.
To `Cn1nc(OC2CC3CCC2O3)c2ccc(Nc3n[nH]c4cccnc34)cc21` (stereo not drawn) [Compound 37] belongs 0.306 µM.
For the compound `Cn1nc(OCCN2CCOCC2)c2ccc(NC(=O)c3ncccc3O)cc21` [Compound 78], the EC50 worked out at 0.255 µM.
With `Cn1nc(OCC2CCOC2)c2ccc(NC(=O)c3cccc(F)n3)cc21` (stereo not drawn) [Compound 95] the figure was 0.211 µM.
To `CC1CC(Oc2nn(C)c3cc(NC(=O)c4ncccc4N)ccc23)CCO1` (stereo not drawn) [Compound 74] belongs 0.431 µM; to `Cn1nc(OC2CCOC[C@H]2F)c2ccc(NC(=O)c3ncccc3O)cc21` (stereo partly drawn) [Compound 72], 0.132 µM.
To `Cn1nc(OCC2COC(C)(C)C2)c2ccc(NC(=O)c3ncccc3N)cc21` (stereo not drawn) [Compound 102] belongs 0.109 µM; to `Cc1ccc(C(=O)Nc2ccc3c(OCC4CCOC4)nn(C)c3c2)nc1` (stereo not drawn) [Compound 90], 0.574 µM.
Turning to `CC1CC(Oc2nn(C)c3cc(Nc4n[nH]c5cccnc45)ccc23)CCO1` (stereo not drawn) [Compound 65], the EC50 came to 0.134 µM.
To `Cn1nc(OCC2COCCO2)c2ccc(Nc3n[nH]c4cccnc34)cc21` (stereo not drawn) [Compound 35] belongs 0.361 µM.
To `Cn1nc(OC[C@H]2COCCO2)c2ccc(NC(=O)c3ccccn3)cc21` [Compound 81] belongs 0.205 µM.
With `Cn1nc(OC2CCS(=O)(=O)CC2)c2ccc(Nc3n[nH]c4cccnc34)cc21` [Compound 29], the EC50 worked out at 0.214 µM.
As to `Cn1nc(OCCN2CCOCC2)c2ccc(Nc3n[nH]c4ncccc34)cc21` [Compound 66], the EC50 worked out at 0.398 µM.
With `Cn1nc(OC2CCOCC2)c2ccc(Nc3n[nH]c4cccnc34)cc21` [Compound 20] the figure was 0.0454 µM; with `Cn1nc(OCC2CCOCC2)c2ncc(Nc3n[nH]c4cccnc34)cc21` [Compound 61], 0.209 µM; with `CC1CC(COc2nn(C)c3cc(NC(=O)c4ncccc4N)ccc23)CC(C)O1` (stereo not drawn) [Compound 108], 0.187 µM.
On to `Cn1nc(Oc2cccc(C#N)n2)c2ccc(Nc3n[nH]c4cccnc34)cc21` [Compound 16], for which the EC50 came to 0.111 µM.
With `Cn1nc(OCC2CC2)c2ccc(Nc3n[nH]c4cccnc34)cc21` [Compound 5] the figure was 0.164 µM; with `Cn1nc(OCC2CCOCC2)c2ncc(NC(=O)c3ncccc3N)cc21` [Compound 58], 0.0505 µM.
For the compound `Cn1nc(OCC2CCOCC2)c2ccc(NC(=O)c3ncccc3O)cc21` [Compound 118], the EC50 was 0.0368 µM.
To `Cn1nc(OCC2CCOC2)c2ccc(NC(=O)c3ncccc3O)cc21` (stereo not drawn) [Compound 44] belongs 0.053 µM; to `Cn1nc(OC2CCOC(C)(C)C2)c2ccc(NC(=O)c3ccccn3)cc21` (stereo not drawn) [Compound 67], 0.0802 µM.
With `Cn1nc(OCC(F)(F)F)c2ccc(Nc3n[nH]c4cccnc34)cc21` [Compound 13] the figure was 0.175 µM; with `Cn1nc(O[C@H]2CCOC2)c2ccc(Nc3n[nH]c4ncccc34)cc21` [Compound 33], 0.575 µM.
For the compound `Cn1nc(OCC2COCCO2)c2ccc(NC(=O)c3ncccc3N)cc21` (stereo not drawn) [Compound 82], the EC50 worked out at 0.0661 µM.
With `Cn1nc(OCC2CCOCC2)c2ccc(Nc3n[nH]c4cccnc34)cc21` [Compound 51] the figure was 0.0404 µM.
To `Cn1nc(OCC2COCCO2)c2ccc(Nc3n[nH]c4ncccc34)cc21` (stereo not drawn) [Compound 112] belongs 0.176 µM; to `Cn1nc(OCCOc2ccc(F)cc2)c2ccc(Nc3n[nH]c4cccnc34)cc21` [Compound 18], 0.852 µM; to `Cn1nc(OCC2CCOCC2)c2ncc(NC(=O)c3ccccn3)cc21` [Compound 57], 0.255 µM.
On to `Cn1nc(OC2CCS(=O)(=O)CC2)c2ccc(NC(=O)c3ncccc3O)cc21` [Compound 41], for which the EC50 amounted to 0.403 µM.
